Values joined by “and” are separate entries in the source; they are usually repeats but may differ in a detail not shown here. Identical values can stand only once. “Also recorded” adds a separate entry of the source.
Tests used:
FcγRIIB = biological target: T1, FcγRIIB (Homo sapiens, UniProt P31994); experiment: FcgRIIb receptor occupancy on peripheral B cells (flow cytometry); format: in vivo; conditions: 100 mg BI-1206; preliminary data
T1 construct: endogenous in cells; host or cells: peripheral CD19+ B cells in whole blood of human subjects (B-cell NHL / CLL patients)
T1 sequence (P31994 43-310): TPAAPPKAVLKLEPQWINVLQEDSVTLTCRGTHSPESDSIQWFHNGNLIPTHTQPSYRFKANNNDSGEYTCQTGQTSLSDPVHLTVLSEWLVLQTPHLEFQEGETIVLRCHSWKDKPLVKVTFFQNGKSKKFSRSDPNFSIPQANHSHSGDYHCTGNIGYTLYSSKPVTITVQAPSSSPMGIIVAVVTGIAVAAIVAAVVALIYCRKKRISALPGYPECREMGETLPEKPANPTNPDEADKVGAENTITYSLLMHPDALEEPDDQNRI
Procedure: The FcgRIIb receptor occupancy in humans and hFcgRIIb transgenic mice was analyzed using flow cytometry. Whole blood from was incubated with either 005-005 antibody (targeting hFcgRIIb) or anti-hCD32-AF647 antibody. 005-005 binds the same epitope as BI-1206 but with much lower affinity. In the analysis, the Geo Mean of respectively mAb (005-005 and anti-human CD32) was acquired on the CD19+ cell population. Receptor occupancy (RO) was calculated using the following equations: RO (%)=((Total Receptors-Normalized Free Receptors)*100)/Total Receptors. All replicates of 005-005 geo mean of CD19+ cells were then multiplied by the Normalization factor.

peripheral B lymphocytes = experiment: Peripheral B lymphocyte depletion after BI-1206 infusion; format: in vivo, human; conditions: 100 mg BI-1206; preliminary data
[1] = tested on: human subjects with non-hodgkins B-cell lymphoma; experiment: Cytokine release in plasma/serum after BI-1206 infusion (MSD); format: in vivo; conditions: ≥70 mg (70-100 mg) BI-1206
Procedure: For cytokine concentrations, frozen plasma samples were thawed and diluted ×2 and x8. Two parallel set of cytokines were analyzed, the proinflammatory assay with IL-6, IL-8, TNF-α, IFN-γ, IL-10, IL-2 and IL-4 (MesoScale Discovery (MSD) #K15049), and the chemokine assay with MIP-113, IL-113, IL-23, IL-12p70, TARC and VEGF (MSD #K15067). The assays followed the manufacturer's protocol as outlined briefly: 50 μL of sample and calibration standard were added to the appropriate MSD plates and incubated. Following washing, 25 μL of SULFO-TAG detection antibody mixture were added to each well of the corresponding plate. The plates were analyzed on a QuickPlex SQ120 Reader instrument (MSD) and cytokine concentration was calculated using the MSD software (Discovery Workbench, 2013; version LSR-4-0-12).

[2] = tested on: human subjects with non-hodgkins B-cell lymphoma; experiment: Clinical response in patients treated with BI-1206; format: in vivo; conditions: after incorporation of the premedication regimen into the clinical protocol
[3] = tested on: human subjects with non-hodgkins B-cell lymphoma; experiment: ALT/AST in clinical studies with BI-1206; conditions: ≥70 mg (70-100 mg) BI-1206
Description: (§1) Platelet counts, ALT concentrations and IRR grading Platelet counts, ALT concentrations and IRR grading were obtained from clinical sites where analyzed and reported according local standard procedures.

[4] = tested on: human subjects with non-hodgkins B-cell lymphoma; experiment: Platelet counts in clinical studies with BI-1206
Description: as §1

[5] = tested on: human subjects with non-hodgkins B-cell lymphoma; experiment: Infusion related reactions (IRR grading) in clinical studies with BI-1206
Description: as §1
Part of the data is based on personal communication with individual investigators.

mouse CD32B (mouse) = mouse CD32B (mouse) (UniProt P08101); experiment: receptor saturation at 10 µg/ml AT-130-2; separate experiments not shown in the filing
mouse CD32B (mouse), sequence (P08101 30-207 limits assumed): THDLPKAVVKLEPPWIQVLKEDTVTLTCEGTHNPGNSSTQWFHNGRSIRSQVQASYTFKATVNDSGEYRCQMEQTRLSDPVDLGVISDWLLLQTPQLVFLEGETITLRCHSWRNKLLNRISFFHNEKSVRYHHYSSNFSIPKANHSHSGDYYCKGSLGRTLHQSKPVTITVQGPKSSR

wildtype C57/BL6 mice [6] = experiment: Macroscopic IRRs (scoring 0-2) in mice after injection of surrogate antibody, with or without premedication or split-dosing; format: in vivo, mouse; design: key to grade of macroscopic symptoms with single premedication: 0: No visible symptoms; 1: Isolation, decreased activity; 2: Isolation, decreased activity, impaired balance, piloerection, hunching followed by un-natural body posture; conditions: for effect of anti-histamine premedication alone on IRRs / macroscopic symptoms: pre i.v. injection of 10 mg/kg AT-130-2 IgG2a; for effect of adding anti-histamine to two doses of corticosteroid: with 40 mg/kg Betamethasone (24 hours and 1 hour) pre i.v. 10 mg/kg AT-130-2 IgG2a, macroscopic symptoms and platelet counts; for inhibition of IRRs by other pre-medications: given i.p. 1 h prior to i.v. AT-130-2 IgG2a bulk dose 200 ug/mouse
Procedure: Six to eight weeks-old (17-20 g) female C57/BL6 and Balb C mice were obtained from Taconic or Janvier. Mice were injected i.v with mouse anti-CD32B AT-130-2 IgG2a either as a bulk dose of 200 ug/mouse or as a split-dose with 8 ug/mouse followed by 200 ug/mouse.
For the corticosteroid treatment, Betapred (betamethasone, VNR: 008938, Alfasigma S.P.A.) was used at 10 mg/kg which is a suboptimal dose in these mouse models.
Split-dosing was initiated 24 h post corticosteroid treatment with 8 ug/mouse of mouse anti-CD32B AT-130-2 IgG2a i.v. followed by a bulk-dose of 200 ug/mouse 20-40 minutes later. In parallel mice were injected with only the bulk-dose.
Mice were monitored post injection with regards to changes in behavior and macroscopic symptoms such as isolation, mobility, and fur condition. Macroscopic IRRs scoring system of 0-2 was set up based on the observations.
Other premedications evaluated were anti-PAF (CV3988, sc-201015, Santa Cruz 20 mg/kg), anti-IL6 (clone 15A7, BE0047, Bioxcell, 10 mg/kg), anti-histamine (Zantac, VNR: 077875, GlaxoSmithKline AB, 5 mg/kg) or a leukotriene-antagonist (131064, Apoex, 4 mg/kg). These premedications were given i.p 1 h prior to injection i.v of mouse anti-CD32B AT-130-2 IgG2a as a bulk dose of 200 ug/mouse.
Six to eight weeks-old (17-20 g) female C57/BL6 mice were obtained from Taconic. Mice were injected either intra-venous (i.v.), […] (i.p.) or sub-cutaneous (s.c.) with mouse anti-CD32B AT-130-2 IgG2a in doses ranging from 1 μg-400 μg/mouse.
For the corticosteroid treatment, Betapred (betamethasone, VNR: 008938, Alfasigma S.P.A.) or Dexamethasone (Cat. No: S1322, batch no: 02, Selleckchem) was used. For the anti-histamine treatment Zyrlex (10 mg/ml, VNR: 523084, MACURE PHARMA ApS), Zantac (25 mg/ml, VNR: 077875, GlaxoSmithKline AB) or Aeurius (0.5 mg/ml, VNR: 097288, Merck Sharp & Dohme BV) was used.
Mice were monitored post injection with regard to changes in behavior and macroscopic symptoms such as isolation, mobility, and fur condition. Macroscopic IRRs scoring system of 0-2 was set up based on the observations: […]
For the corticosteroid treatment, Betapred (betamethasone, VNR: 008938, Alfasigma S.P.A.) or Dexamethasone (Cat. No: S1322, Batch No: 02, Selleckchem) was used.

wildtype C57/BL6 mice [7] = experiment: Platelet counts in fresh mouse blood (Vetscan) after antibody injection; format: in vivo; conditions: pre i.v. injection of 10 mg/kg AT-130-2 IgG2a
Procedure: Blood samples were collected from vena saphena 20 min post injection of bulk dose of anti-CD32B for instant blood count analysis. For liver enzyme and cytokine analysis, the mice were bled from the aorta under isoflurane anesthesia just prior to sacrifice. Samples for liver enzymes and cytokines were collected 1 h and respectively 3 h after bulk dose.
Platelet counts were analyzed in fresh blood using a Vetscan (Vetscan HM5 Abaxis, Triolab).
Blood samples were collected from vena saphena for instant blood count analysis. For serum concentrations of AT130-2, liver enzyme and cytokine analysis, the mice were bled from the aorta under isoflurane anesthesia just prior to sacrifice.
Blood samples were collected from vena saphena for instant blood count analysis.

Molecule: BI-1206: anti-FcγRIIb antibody with light chain SEQ ID No:1 and heavy chain SEQ ID No:2
- duration of receptor saturation (FcγRIIB): up to 48 hours
- receptor occupancy on peripheral B cells (FcγRIIB): ~100%
- peripheral B lymphocytes (peripheral B lymphocytes): transient depletion of peripheral B lymphocytes
- time to recovery of peripheral B lymphocytes (peripheral B lymphocytes): approximately 7 days
- time to normalization of cytokines [1]: ≤ 24 h
- clinical responses [2]: Both complete and partial responses have been observed
- subjects with significant ALT and AST increase [3]: 3/14 and 3 out of 16
- platelet decrease ([4]; 70 mg BI-1206, subjects 501-001 and 503-002, two doses of dexamethasone): no/low platelet decrease
- seriousness and resolution of thrombocytopenia ([4]; 70-100 mg / ≥50 mg BI-1206): The decrease is transient and most episodes have been resolved within a week; also recorded: has not been serious nor associated with bleeding and most episodes resolved within a week
- platelets ([4]; ≥50 mg BI-1206): transient decrease in platelets
- grade of IRR's ([5]; 30 mg BI-1206, subject 201-003, 10th administration, two doses of dexamethasone): 1
- IRRs ([5]; 70 mg BI-1206, subjects 501-001 and 503-002, dexamethasone 12 mg or 4 mg the evening before and 20 mg 30 minutes prior): None of the subjects suffered any IRRs; also recorded: Both subjects did not suffer IRRs
- grade of IRRs ([5]; 70 mg BI-1206, subjects 501-001 and 503-002, dexamethasone (20 mg) only 30 minutes prior to infusion): 2-3 grade
- severity and frequency of IRRs after implementation of premedication with two doses of corticosteroids ([5]; 70-100 mg BI-1206, study 17-BI-1206-02): Significantly lower frequency and severity of IRRs; also recorded: statistically significant reduced severity and frequency of IRRs
- infusion related reactions during BI-1206 infusions ([5]; i.v. administration, human subjects): frequently associated with IRRs; also recorded: Frequent infusion related reactions (IRRs) have been seen

Molecule: AT-130-2 IgG2a (antibody)
- receptor saturation (mouse CD32B (mouse)): 100%

Molecule: Clc1ccc2c(c1)CCc1cccnc1C2=C1CCNCC1 [Aeurius]
- effect of anti-histamine premedication alone on IRRs / macroscopic symptoms (wildtype C57/BL6 mice [6]; 10 mg/kg): did not inhibit IRRs or platelet decrease
- effect of anti-histamine premedication alone on IRRs / macroscopic symptoms (wildtype C57/BL6 mice [6]; listed as Au, 10 mg/kg): The same results were seen
- effect of adding anti-histamine to two doses of corticosteroid (wildtype C57/BL6 mice [6]): the protective effect was retained
- effect of anti-histamine premedication alone on platelet decrease (wildtype C57/BL6 mice [7]): did not inhibit IRRs or platelet decrease

Molecule: C[C@H]1C[C@H]2[C@@H]3CCC4=CC(=O)C=C[C@]4(C)[C@@]3(F)[C@@H](O)C[C@]2(C)[C@@]1(O)C(=O)CO [betamethasone]
- grade of macroscopic symptoms with single premedication (wildtype C57/BL6 mice [6]; 40 mg/kg only 24 hours before i.v. 10 mg/kg AT-130-2 IgG2a): 1

Molecule: CCCCCCCCCCCCCCCCCCNC(=O)OCC(COP(=O)([O-])OCC[n+]1ccsc1)OC (stereo not drawn) [anti-PAF]
- inhibition of IRRs by other pre-medications (wildtype C57/BL6 mice [6]): None of these pre-medications could inhibit IRRs; also recorded: none of the tested substances (anti-PAF, anti-IL-6, anti-histamine and a leukotrien-antagonist) could prevent the IRRs

Molecule: CC(C)(C)c1ccc(C(O)CCCN2CCC(C(O)(c3ccccc3)c3ccccc3)CC2)cc1 (stereo not drawn) [anti-histamine]
- inhibition of IRRs by other pre-medications (wildtype C57/BL6 mice [6]): None of these pre-medications could inhibit IRRs; also recorded: none of the tested substances (anti-PAF, anti-IL-6, anti-histamine and a leukotrien-antagonist) could prevent the IRRs
- effect of anti-histamine premedication alone on IRRs / macroscopic symptoms (wildtype C57/BL6 mice [6]): did not inhibit macroscopic symptoms
- effect of adding anti-histamine to two doses of corticosteroid (wildtype C57/BL6 mice [6]): did not affect macroscopic symptoms or platelet counts
- effect of anti-histamine premedication alone on platelet decrease (wildtype C57/BL6 mice [7]): did seem to improve decrease in platelet counts

Molecule: O=C(O)COCCN1CCN(C(c2ccccc2)c2ccc(Cl)cc2)CC1 (centres unmarked) [Zyrlex]
- effect of anti-histamine premedication alone on IRRs / macroscopic symptoms (wildtype C57/BL6 mice [6]; 10 mg/kg): The same results were seen; also recorded: did not inhibit IRRs or platelet decrease
- effect of adding anti-histamine to two doses of corticosteroid (wildtype C57/BL6 mice [6]): the protective effect was retained
- effect of anti-histamine premedication alone on platelet decrease (wildtype C57/BL6 mice [7]): did not inhibit IRRs or platelet decrease
